From patent US20160024083A1, “COMPOUNDS AND METHODS FOR TREATING CANCERS” (HEALTH RESEARCH, INC., priority 2013, published 2016)
Read-outs that look alike come from different tables or passages of the source.

Columns and labels:
Mdm2 = Mdm2 accumulation, Western Blot; type: cell-based; details: MCF7 cells with functionally inactive p53 (R175H, GSE56)
Description: Results of Western Blot analysis: CWR22r cells were treated with 1 uM c52 for indicated time intervals.
Also tested was the hypothesis that degradation of androgen receptor in prostate and breast cancer cells may be due to p53 induced accumulation of mdm2, which is also ubiquitin ligase for androgen receptor (FIG. 15). p53 was inactivated in several cell lines using different approaches what led to the blockade of mdm2 accumulation after c52 treatment. However androgen receptor was still degraded in c52 treated cells even in the absence of p53 activation and mdm2 accumulation (FIG. 16).

Hela = assay: Inhibition of growth / toxicity in non-target Hela cells; type: cell-based; details: Homo sapiens, HeLa
Description: (§1) This example provides a table (below) of the compounds of the present disclosure and their activity towards four different cell lines (i.e., CWR22R, HeLa, PC3, and MDA-MB-231). The IC50 for inhibition of growth is divided into 4 categories: A<1 μM, B 1-5 μM, C 5-20 μM, D>20 μM.
(§2) All compounds were tested for toxicity using 4 cells lines, target cells—CWR22R and non-target cells, Hela, PC3 and MDA-MB-231 (FIGS. 1A-F).

MDA-MB-231 = assay: Inhibition of growth / toxicity in non-target MDA-MB-231 cells; type: cell-based; details: Homo sapiens
Description: as §1, §2

PC3 = assay: Inhibition of growth / toxicity in non-target PC3 cells; type: cell-based; details: Homo sapiens, PC-3
Description: as §1, §2

CWR22R = assay: cells; type: cell-based; details: for IC50: Homo sapiens, 22Rv1, CWR22R, read-out: IC50 for inhibition of growth
Description: FIG. 21. Toxicity of PLA1055 to CWR22R cells in vitro depending on time of incubation. PLA1055 was added to CWR22R in full range of concentrations for the periods of time shown on the right. After that drug containing media were changed for drug free and survival of cells was detected at 72 hours after start of treatment using Alamar Blue assay (Promega).
as §1, §2
(§3) LC50 data of in vitro 72 hours cytotoxicity assay are included in this table for comparison.
An in vitro experiment was run to detect the concentration of PLA1055 needed to kill all tumor cells in vitro (LC90) during different periods of time (30 minutes-72 hours, FIG. 21)).

[1] = Plasma concentration (PK) after intravenous and intraperitoneal injections; type: in vivo; details: for plasma concentration time course: after IV and IP injections; for plasma concentration time course / bioavailability through IP injection: 50-100 mg/kg; for bioavailability through IP injection: plasma concentrations similar or even higher after IP than IV
[2] = Solubility for in vivo administration; type: physicochemical; details: tested for PK using IP injection of the drug in suspension
[3] = tested on: presumable target protein; assay: DARTS (Drug Affinity Responsive Target Stability) assay in CWR22r lysates; type: binding; details: protein lysates from CWR22r cells
Description: FIG. 24. DARTS (Drug Affinity Responsive Target Stability) assay was performed using c52 and PLA1118. According to this assay these compounds are capable of protecting presumable target protein from protease degradation. Protein lysates from sensitive CWR22r cells were incubated with or without the drug and subsequently digested with the indicated concentration of pronase. A. c52 was used (lane T-treated, M-marker) with indicated concentrations of pronase; ability of c52 to protect its target from protease cleavage was judged based on presence of protein band in the treated lane vs the untreated (UT) control.
Target identification through affinity chromatography and sensitivity to proteolysis methods was undertaken. […] These bands were excised from gel and sent for protein sequencing. (FIG. 24).

CWR22R tumors = assay: In vivo efficacy, subcutaneous xenografts of CWR22R cells in SCID mice
Description: (§4) We tested these compounds in an in vivo efficacy experiment using model of CRPC in SCID mice, CWR22R. Two compounds, PLA1079 and 1125, which were synthesized in the amount of 500 mg were tested in full scale experiment with either 5 IV daily injections or 10 IP daily injections. After 5 IP or IV injections intra-tumor concentration of the compounds were measured in few mice from this experiment.
(§5) Two other compounds, PLA1148 and 1098 (PK testing in FIGS. 8 and 9) were tested in a small scale efficacy experiment. Upon PK testing of the compound PLA1148 one mouse was injected twice with 10 min interval. However the concentration of the drug in plasma of this mouse was not twice, but >4 times higher than in mice injected once. […] It was decided to utilize this observation in an attempt to get higher plasma and tumor concentration of both compounds. Therefore in the pilot efficacy experiment in the same model of CWR22R cells mice were treated with 2 IP injections with 10 minute interval. Treatment with PLA1098 was carried out for two days. […] However this is so far the highest concentration found in tumor.
Pilot efficacy experiments were run for compounds: PLA1163, PLA1148 using the same model of subcutaneous xenografts of CWR22R cells in SCID mice (FIGS. 18 and 19).

[4] = Tissue drug concentrations (tumor, liver, plasma) in treated CWR22R tumor-bearing mice; type: in vivo
Description: as §4
as §5, with “tumor. […]” for “tumor.”
as §3

[5] = Toxicity / side effects in treated mice; type: in vivo
Description: as §5
This compound may be also potentially promising.

[6] = Aqueous solubility (pH 7.4); type: physicochemical
[7] = single IV administration of 50 mg/kg (FIG. 20)
[8] = one mouse, 24 hours after injections

With `CC(=O)c1ccc2c(c1)c1cc(C(C)=O)ccc1n2CCNC(C)C` [CBL 137, reference compound] the Mdm2 level (Mdm2) was “Mdm2 is no longer overexpressed”.
Compound `N#Cc1ccc2c(c1)c1ccccc1n2CCCF` [Compound 26-1, 9-(3-Fluoropropyl)-9H-carbazole-3-carbonitrile] has an IC50 (Hela) greater than 20000 nM, an IC50 (MDA-MB-231) greater than 20000 nM and an IC50 (PC3) greater than 20000 nM. The IC50 (CWR22R) was less than 1000 nM.
`CCCn1c2ccc(C(C)=O)cc2c2c(O)cccc21` [Compound 27-1, 1-(5-Hydroxy-9-propyl-9H-carbazol-3-yl)-ethanone] showed an IC50 (Hela) greater than 20000 nM, an IC50 (MDA-MB-231) greater than 20000 nM and an IC50 (PC3) greater than 20000 nM. The IC50 (CWR22R) was greater than 20000 nM.
With `CC(=O)c1ccc2c(c1)c1ccccc1n2CCCF` [PLA1055] the “plasma concentration at 8 hours” value [1, 7] was “below 1 uM”, the “time up to which compound was detected in plasma” value [1, 7] was “up to 24 hours” and the CC50 (CWR22R) was 40 nM. The LC90 (CWR22R; CWR22R, incubation 4-8 hours, survival at 72 hours, Alamar Blue assay) was 2500 nM.
For `CCCn1c2ccccc2c2c3cc[nH]c(=O)c3ccc21` [PLA1099], the solubility [2] was “poorly soluble”.
For `CCCn1c2ccccc2c2cc(S(C)(=O)=O)ccc21` [PLA1118], the “protection of target protein from pronase degradation” value [3] was “faintly”.
For `O=c1[nH]ccc2c1ccc1c2c2ccccc2n1CCCF` [PLA1121], the solubility [2] was “poorly soluble”.
In the case of `FCCCn1c2ccccc2c2cc(-c3nnco3)ccc21` [PLA1125], the in vivo efficacy (CWR22R tumors; CWR22R in SCID mice, 5 IV daily injections or 10 IP daily injections) is reported as “absence of in vivo efficacy”, the “plasma concentration time course” value [1] is reported as “fast reduction of concentration during the first hour” and the “bioavailability through IP injection” value [1] is reported as “very high”. The “Tumor concentration” value ([4]; 100 mg/kg, IP/IV) was 7 to 10 nM, the “intra-tumor concentration relative to LC50% in vitro” value ([4]; mouse, in vivo) was “significantly below LC50%” and the CC50 (CWR22R) was 100 nM.
For `O=C1NCCc2c1ccc1c2c2ncccc2n1CCCF` [PLA1148], the acute toxicity ([5]; 2 IP injections with 10 minute interval, one day, symptoms suggested acute liver failure) was “acute toxicity developed quickly after injection”, the mortality ([5]; after one day of injections) was 2 mice died next day and 3 other during next 5 days and the “tumors of mice that died on the 5th day” value (CWR22R tumors; CWR22R, two mice) was “almost undetectable tumors”. For the same compound, the “plasma concentration time course” value [1] was “fast reduction of concentration during the first hour”, the “bioavailability through IP injection” value [1] was “very high” and the “plasma concentration of mouse injected twice versus mice injected once” value ([1]; two injections with 10 min interval) was greater than 4 times. The “Liver” value ([4]; 50 mg/kg, IP) was 50 nM, the “Tumor concentration” value ([4]; 50 mg/kg, IP) was 0 to 90 nM and the Tumor concentration ([4]; 48 hours after treatment) was 84 nM. The liver concentration ([4]; 48 hours after treatment) was 49 nM, the plasma concentration ([4]; 48 hours after treatment, compared with 24 hours (8.5 nM)) was “The same plasma concentration” and the drug in liver [4, 8] was “no drug detected”. For the same compound, the drug in tumor [4, 8] was “no drug detected” and the plasma concentration [4, 8] was 8.5 nM.
For `O=C1NCCOc2c1ccc1c2c2ccccc2n1CCCF` [PLA1163], the solubility [2] was “poorly soluble”, the “Liver” value ([4]; 40 mg/kg, IP) was 307 nM and the “Tumor concentration” value ([4]; 40 mg/kg, IP) was 4 to 10 nM. The CC50 (CWR22R) was 200 nM.
For `O=c1[nH]ccc2c1ccc1c2c2ncccc2n1CCCF` [PLA1181], the “Aqueous Solubility Classification” value [6] was “Low” and the “Aqueous Solubility Classification” value ([6]; pH 7.4) was “Low”.
